Data published in US20110130384A1, “AMIDE COMPOUND” (TAKEDA PHARMACEUTICAL COMPANY LIMITED, priority 2008, published 2011).

Target: T1, human GPR52 (Homo sapiens, UniProt Q9Y2T5)
T1 construct: expressed in transfected cells; host or cells: CHO(dhfr-) cells
Test: Increase of intracellular cAMP concentration in human GPR52-expressing CHO cell (AlphaScreen cAMP assay)
Format: cell-based
Conditions: 1 μM test compound, human GPR52-expressing CHO(dhfr-) cells, 37° C. for 30 min; intracellular cAMP with 1 μM Reference Example 124 = 100%, DMSO = 0%
Method: Increase of Intracellular cAMP Concentration in Human GPR52-Expressing CHO Cell
Using OptiPlate-384 (PerkinElmer Inc.), 1×10^4 human GPR52-expressing CHO(dhfr-) cells were incubated together with 1 μM of a test compound in an assay buffer (30 μL, HBSS (containing Ca^2+ and Mg^2+), 0.5% BSA, 100 μm IBMX, 100 μm Ro20-1724, 5 mM HEPES (pH 7.55)) at 37° C. for 30 min. Thereafter, according to the protocol of AlphaScreen cAMP Assay Kit (PerkinElmer Inc.), the intracellular cAMP concentration was measured by EnVision (PerkinElmer Inc.). The GPR52 agonist activity was calculated, assuming the intracellular cAMP concentration in the presence of 1 μM 3-(6-(2-(3,4-dimethoxyphenyl)ethoxy)pyridin-2-yl)-N-(2-pyrrolidin-1-ylethyl)benzamide (Reference Example 124) to be 100% and assuming the intracellular cAMP concentration when DMSO was added instead of the test compound to be 0%.

T1 sequence (Q9Y2T5 whole entry): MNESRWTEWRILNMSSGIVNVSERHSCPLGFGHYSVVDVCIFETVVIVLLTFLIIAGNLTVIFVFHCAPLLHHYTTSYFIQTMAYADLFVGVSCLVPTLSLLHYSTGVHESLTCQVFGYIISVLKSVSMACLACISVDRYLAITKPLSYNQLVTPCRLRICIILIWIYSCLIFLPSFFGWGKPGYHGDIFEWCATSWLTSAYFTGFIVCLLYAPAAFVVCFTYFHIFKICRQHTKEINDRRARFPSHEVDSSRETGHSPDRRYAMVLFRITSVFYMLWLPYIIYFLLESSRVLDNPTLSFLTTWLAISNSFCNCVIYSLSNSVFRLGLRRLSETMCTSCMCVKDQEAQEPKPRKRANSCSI

SMILES	GPR52 agonist activity (%)
N#CCCNC(=O)c1cccc(-c2ccc3c(n2)N(Cc2ccc(Cl)cc2Cl)CC3)c1 [Example 30, N-(2-cyanoethyl)-3-[1-(2,4-dichlorobenzyl)-2,3-dihydro-1H-pyrrolo[2,3-b]pyridin-6-yl]benzamide]	72%
N#CCCNC(=O)c1cccc(-c2ccc3c(c2)N(c2ccc(Cl)cc2Cl)CCO3)c1 [Example 47, N-(2-cyanoethyl)-3-[4-(2,4-dichlorophenyl)-3,4-dihydro-2H-1,4-benzoxazin-6-yl]benzamide]	63%
O=C(NCCO)c1cccc(-c2ccc3c(c2)C(Nc2ccc(Cl)cc2Cl)CO3)c1 (stereo not drawn) [Example 87, 3-[3-[(2,4-dichlorophenyl)amino]-2,3-dihydro-1-benzofuran-5-yl]-N-(2-hydroxyethyl)benzamide]	59%
O=C(NC(CO)CO)c1cccc(-c2ccc3c(c2)C(c2ccc(Cl)cc2Cl)CC3)c1 (stereo not drawn) [Example 65, 3-[3-(2,4-dichlorophenyl)-2,3-dihydro-1H-inden-5-yl]-N-[2-hydroxy-1-(hydroxymethyl)ethyl]benzamide]	91%
O=C(NCCO)c1cccc(-c2ccc3c(c2)N(c2ccc(Cl)cc2Cl)CC3)c1 [Example 3, 3-[1-(2,4-dichlorophenyl)-2,3-dihydro-1H-indol-6-yl]-N-(2-hydroxyethyl)benzamide]	71%
O=C(NCCO)c1cccc(-c2ccc3c(c2)N(c2cccc(Cl)c2Cl)CC3)c1 [Example 11, 3-[1-(2,3-dichlorophenyl)-2,3-dihydro-1H-indol-6-yl]-N-(2-hydroxyethyl)benzamide]	74%
COc1ccc(CCn2ccc3ccc(-c4cccc(C(=O)NCCN(C)C)c4)nc32)cc1OC [Example 25, 3-[1-[2-(3,4-dimethoxyphenyl)ethyl]-1H-pyrrolo[2,3-b]pyridin-6-yl]-N-[2-(dimethylamino)ethyl]benzamide]	80%
N#CCCNC(=O)c1cccc(-c2ccc3c(c2)C(c2ccc(Cl)cc2Cl)CC3)c1 (single isomer, unassigned; (-)) [Example 62, (−)-N-(2-cyanoethyl)-3-[3-(2,4-dichlorophenyl)-2,3-dihydro-1H-inden-5-yl]benzamide]	81%
CS(=O)(=O)CCNC(=O)c1cccc(-c2ccc3c(c2)C(Oc2ccc(Cl)cc2Cl)CC3)c1 (stereo not drawn) [Example 77, 3-[3-(2,4-dichlorophenoxy)-2,3-dihydro-1H-inden-5-yl]-N-[2-(methylsulfonyl)ethyl]benzamide]	73%
N#CCCNC(=O)c1cccc(-c2ccc3c(c2)N(Cc2cc(Cl)cc(Cl)c2)CC3)c1 [Example 15, N-(2-cyanoethyl)-3-[1-(3,5-dichlorobenzyl)-2,3-dihydro-1H-indol-6-yl]benzamide]	77%
O=C(NCCO)c1cccc(-c2ccc3c(n2)N(Cc2ccc(Cl)cc2Cl)CC3)c1 [Example 29, 3-[1-(2,4-dichlorobenzyl)-2,3-dihydro-1H-pyrrolo[2,3-b]pyridin-6-yl]-N-(2-hydroxyethyl)benzamide]	76%
O=C(NCCO)c1cccc(-c2ccc3c(c2)C(c2ccc(Cl)cc2Cl)CC3)c1 (stereo not drawn) [Example 64, 3-[3-(2,4-dichlorophenyl)-2,3-dihydro-1H-inden-5-yl]-N-(2-hydroxyethyl)benzamide]	84%
N#CCCNC(=O)c1cccc(-c2ccc3c(c2)N(c2cccc(Cl)c2Cl)CC3)c1 [Example 10, N-(2-cyanoethyl)-3-[1-(2,3-dichlorophenyl)-2,3-dihydro-1H-indol-6-yl]benzamide]	65%
O=C(Nc1nccs1)c1cccc(-c2ccc3c(c2)C(Oc2ccc(Cl)cc2Cl)CC3)c1 (stereo not drawn) [Example 82, 3-[3-(2,4-dichlorophenoxy)-2,3-dihydro-1H-inden-5-yl]-N-1,3-thiazol-2-ylbenzamide]	67%
C[S+]([O-])CCNC(=O)c1cccc(-c2ccc3c(c2)C(c2ccc(Cl)cc2Cl)CC3)c1 (stereo not drawn) [Example 66, 3-[3-(2,4-dichlorophenyl)-2,3-dihydro-1H-inden-5-yl]-N-[2-(methylsulfinyl)ethyl]benzamide]	88%
N#CCCNC(=O)c1cccc(-c2ccc3c(n2)N(c2ccc(Cl)cc2Cl)CC3)c1 [Example 34, N-(2-cyanoethyl)-3-[1-(2,4-dichlorophenyl)-2,3-dihydro-1H-pyrrolo[2,3-b]pyridin-6-yl]benzamide]	74%
N#CCCNC(=O)c1cccc(-c2ccc3c(c2)C(c2ccc(Cl)cc2Cl)CC3)c1 (single isomer, unassigned; (+)) [Example 63, (+)-N-(2-cyanoethyl)-3-[3-(2,4-dichlorophenyl)-2,3-dihydro-1H-inden-5-yl]benzamide]	66%

SMILES	GPR52 agonist activity (%)
CS(=O)(=O)CCNC(=O)c1cccc(-c2ccc3c(c2)C(c2ccc(Cl)cc2Cl)CC3)c1 (stereo not drawn) [Example 67, 3-[3-(2,4-dichlorophenyl)-2,3-dihydro-1H-inden-5-yl]-N-[2-(methylsulfonyl)ethyl]benzamide]	73%
O=C(NCCO)c1cccc(-c2ccc3c(c2)C(c2ccc(Cl)cc2Cl)CCO3)c1 (stereo not drawn) [Example 90, 3-[4-(2,4-dichlorophenyl)-3,4-dihydro-2H-chromen-6-yl]-N-(2-hydroxyethyl)benzamide]	65%
O=C(NCCO)c1cccc(-c2ccc3ccn(Cc4ccc(Cl)cc4Cl)c3n2)c1 [Example 28, 3-[1-(2,4-dichlorobenzyl)-1H-pyrrolo[2,3-b]pyridin-6-yl]-N-(2-hydroxyethyl)benzamide]	64%
CN(C)CCNC(=O)c1cccc(-c2ccc3c(c2)C(c2cc(Cl)ccc2Cl)CC3)c1 (stereo not drawn) [Example 51, 3-[3-(2,5-dichlorophenyl)-2,3-dihydro-1H-inden-5-yl]-N-[2-(dimethylamino)ethyl]benzamide]	89%
O=C(NCCO)c1cccc(-c2ccc3c(c2)N(Cc2cc(Cl)cc(Cl)c2)CC3)c1 [Example 16, 3-[1-(3,5-dichlorobenzyl)-2,3-dihydro-1H-indol-6-yl]-N-(2-hydroxyethyl)benzamide]	84%
N#CCCNC(=O)c1cccc(-c2ccc3c(c2)C(Oc2ccc(Cl)cc2Cl)CC3)c1 (stereo not drawn) [Example 73, N-(2-cyanoethyl)-3-[3-(2,4-dichlorophenoxy)-2,3-dihydro-1H-inden-5-yl]benzamide]	73%
N#CCCNC(=O)c1cccc(-c2ccc3c(c2)N(c2cc(Cl)ccc2Cl)CC3)c1 [Example 4, N-(2-cyanoethyl)-3-[1-(2,5-dichlorophenyl)-2,3-dihydro-1H-indol-6-yl]benzamide]	75%
N#CCCNC(=O)c1cccc(-c2ccc3c(c2)N(Cc2ccc(Cl)cc2Cl)CC3)c1 [Example 13, N-(2-cyanoethyl)-3-[1-(2,4-dichlorobenzyl)-2,3-dihydro-1H-indol-6-yl]benzamide]	60%
O=C(NCCCO)c1cccc(-c2ccc3c(n2)N(Cc2ccc(Cl)cc2Cl)CC3)c1 [Example 31, 3-[1-(2,4-dichlorobenzyl)-2,3-dihydro-1H-pyrrolo[2,3-b]pyridin-6-yl]-N-(3-hydroxypropyl)benzamide]	62%
N#CCCNC(=O)c1cccc(-c2ncc3ccn(Cc4ccc(Cl)cc4Cl)c3n2)c1 [Example 40, N-(2-cyanoethyl)-3-[7-(2,4-dichlorobenzyl)-7H-pyrrolo[2,3-d]pyrimidin-2-yl]benzamide]	52%
COc1ccc(CCn2ccc3ccc(-c4cccc(C(=O)NCCC#N)c4)nc32)cc1OC [Example 26, N-(2-cyanoethyl)-3-[1-[2-(3,4-dimethoxyphenyl)ethyl]-1H-pyrrolo[2,3-b]pyridin-6-yl]benzamide]	62%
O=C(NCCO)c1cccc(-c2ccc3c(c2)N(c2cc(Cl)cc(Cl)c2)CC3)c1 [Example 9, 3-[1-(3,5-dichlorophenyl)-2,3-dihydro-1H-indol-6-yl]-N-(2-hydroxyethyl)benzamide]	59%
N#CCCNC(=O)c1cccc(-c2ccc3c(c2)N(c2ccc(Cl)cc2Cl)CC3)c1 [Example 2, N-(2-cyanoethyl)-3-[1-(2,4-dichlorophenyl)-2,3-dihydro-1H-indol-6-yl]benzamide]	69%
CN(C)CCNC(=O)c1cccc(-c2ccc3c(c2)N(Cc2ccc(Cl)cc2Cl)CC3)c1 [Example 12, 3-[1-(2,4-dichlorobenzyl)-2,3-dihydro-1H-indol-6-yl]-N-[2-(dimethylamino)ethyl]benzamide]	89%
CN(C)CCNC(=O)c1cccc(-c2ccc3c(c2)N(c2ccc(Cl)cc2Cl)CC3)c1 [Example 1, 3-[1-(2,4-dichlorophenyl)-2,3-dihydro-1H-indol-6-yl]-N-[2-(dimethylamino)ethyl]benzamide]	87%
NC(=O)CNC(=O)c1cccc(-c2ccc3c(c2)C(Oc2ccc(Cl)cc2Cl)CC3)c1 (stereo not drawn) [Example 83, N-(2-amino-2-oxoethyl)-3-[3-(2,4-dichlorophenoxy)-2,3-dihydro-1H-inden-5-yl]benzamide]	70%
